Measurements taken from patent EP3366286A1, “COMPOUNDS FOR TREATING SEPSIS” (Keller, Johannes, priority 2017, dated 2018).
“Also recorded” adds a separate entry of the source.

How the values were obtained:
WT mice [1] = assay: Survival in lethal endotoxemia (40 mg/kg LPS ip), monitored for 7 days; format: in vivo
Protocol: (§1) Nat Protoc 4, 31-36 (2009). Briefly, an approximately 1 cm abdominal midline incision was made, followed by exposure of the cecum. After ligation, the cecum was punctured three times through and through with a 19-gauge needle and a small portion of feces was pressed out. After repositioning of the bowel, the abdomen was closed in layers using surgical sutures and metallic clips, and 1 ml of 0.9% NaCl (37° Celsius) was slowly injected subcutaneously for resuscitation. For induction of lethal endotoxemia, mice received an intraperitoneal (ip) injection of 40 mg/kg LPS. Survival was monitored at least every 6 h for 7 days after which the experiments were terminated. For pharmacologic proof-of-principle experiments involving II17a, mice received 100 µg/kg PCT and/or 2.5 µg/kg antibody treatment ip 30 minutes before and 12h after induction of septic shock through 40 mg/kg LPS ip. Non-specific IgG was used at equal concentrations. Olcegepant (100 mg/kg) was administered intraperitoneally or subcutaneously as indicated. For in vivo experiments involving expression, histological, and FACS analyses, mice were challenged with a sublethal dose of LPS (10 mg/kg ip). The use of in vivo experiments, especially CLP, was kept to a minimum throughout the study (replace, reduce, refine) in accordance to current recommendations for animal welfare in sepsis research (Lilley 2015). Experimental procedures were performed with approval from the animal care committees of the University Medical Center Hamburg-Eppendorf and the Behörde für Umwelt und Gesundheit der Hansestadt Hamburg.
The number of samples was chosen according to established standards providing sufficient statistical power to enable the detection of biologically relevant differences in animal models. Data were analyzed by two-tailed Student's t-test using Excel software. In the case of multiple comparisons, Bonferroni correction was used. Survival analyses were performed using the log-rank-test. If not indicated otherwise, all data are reported as mean ± SD. p<0.05 was considered statistically significant.

WT mice [2] = assay: Serum cytokine levels (ELISA) after sublethal LPS challenge; format: in vivo; conditions: 10 h after 10 mg/kg LPS, single injection of 100 mg/kg ip (Figure 5D)
Protocol: as §1, with “The use of in vivo experiments, especially CLP, was kept to a minimum throughout the study (replace, reduce, refine) in accordance to current recommendations for animal welfare in sepsis research (Lilley 2015). Experimental procedures were performed with approval from the animal care committees of the University Medical Center Hamburg-Eppendorf and the Behörde für Umwelt und Gesundheit der Hansestadt Hamburg.” left out
Serum was obtained by cardiac puncture. […] Serum concentrations of PCT, CT and CGRP were measured by ELISA (Kamiya #KT-25866, Bachem #S-1488.0001 BA, S-1167.0001 BA).

[3] = tested on: bone marrow-derived macrophages; assay: Cytokine mRNA expression (qRT-PCR) in primary macrophages stimulated with LPS and/or PCT; format: cell-based, mouse; conditions: macrophages in vitro, LPS plus PCT, mRNA levels (Figure 5C)
Protocol: RNA was isolated using the RNeasyMini kit (Qiagen). For qRT-PCR expression analysis, 1 µg of RNA was reverse transcribed using SuperScriptIII (Invitrogen) according to the manufacturer's instructions. qRT-PCR analysis was performed using predesigned TaqMan gene expression assays (Applied Biosystems) and Gapdh as internal control.
Primary macrophages were generated from bone marrow cells cultured in DMEM supplemented 10% FCS and 40 ng/ml M-CSF for 7 days. Primary DC were generated from mouse bone marrow cells which were grown in RPMI 1640 medium with 10% FBS supplemented with 100 U/ml GM-CSF and 20 ng/ml IL-4 for 7 days. For γδT cell preparations, spleens were dissected and processed through a 40-µm filter, followed by lysis of erythrocytes. γδT lymphocytes were subsequently purified using magnetic labeled beads (Miltenyi Biotec, #130-092-125). For the generation of primary osteoblasts, bone marrow cells were differentiated for 10 days in the presence of 25 µg/ml ascorbic acid and 5 mM β-glycerophosphate as described previously (Keller, J., et al. Calcitonin controls bone formation by inhibiting the release of sphingosine 1-phosphate from osteoclasts. Nat Commun 5, 5215 (2014)). […]

WT mice [4] = assay: Survival after cecal ligation and puncture (CLP); format: in vivo; conditions: 100 mg/kg subcutaneous every 12h (Figure 5F)
Protocol: as §1, with “For in vivo experiments involving expression, histological, and FACS analyses, mice were challenged with a sublethal dose of LPS (10 mg/kg ip). The use of in vivo experiments, especially CLP, was kept to a minimum throughout the study (replace, reduce, refine) in accordance to current recommendations for animal welfare in sepsis research (Lilley 2015). Experimental procedures were performed with approval from the animal care committees of the University Medical Center Hamburg-Eppendorf and the Behörde für Umwelt und Gesundheit der Hansestadt Hamburg.” left out
(§2) The number of samples was chosen according to established standards providing sufficient statistical power to enable the detection of biologically relevant differences in animal models. Data were analyzed by two-tailed Student's t-test using Excel software. […]

Calca-deficient mice = assay: Survival in lethal endotoxemia (40 mg/kg LPS ip); format: in vivo; conditions: 100 mg/kg ip co-administered with (immediately before) 40 mg/kg LPS ip (Figure 5G)
Protocol: as §1, with “For in vivo experiments involving expression, histological, and FACS analyses, mice were challenged with a sublethal dose of LPS (10 mg/kg ip). The use of in vivo experiments, especially CLP, was kept to a minimum throughout the study (replace, reduce, refine) in accordance to current recommendations for animal welfare in sepsis research (Lilley 2015). Experimental procedures were performed with approval from the animal care committees of the University Medical Center Hamburg-Eppendorf and the Behörde für Umwelt und Gesundheit der Hansestadt Hamburg.” left out
as §2

αCgrp-deficient mice = assay: Survival in lethal endotoxemia (40 mg/kg LPS ip); format: in vivo; conditions: 100 mg/kg ip immediately before 40 mg/kg LPS (Figure 5H)
Protocol: as §1, with “For in vivo experiments involving expression, histological, and FACS analyses, mice were challenged with a sublethal dose of LPS (10 mg/kg ip). The use of in vivo experiments, especially CLP, was kept to a minimum throughout the study (replace, reduce, refine) in accordance to current recommendations for animal welfare in sepsis research (Lilley 2015). Experimental procedures were performed with approval from the animal care committees of the University Medical Center Hamburg-Eppendorf and the Behörde für Umwelt und Gesundheit der Hansestadt Hamburg.” left out
as §2

NCCCC[C@H](NC(=O)[C@@H](Cc1cc(Br)c(O)c(Br)c1)NC(=O)N1CCC(N2Cc3ccccc3NC2=O)CC1)C(=O)N1CCN(c2ccncc2)CC1 [olcegepant, N-((1R)-2-(((1S)-5-amino-1-((4-(pyridin-4-yl)piperazin-1-yl)carbonyl)pentyl)amino)-1-(3,5-dibromo-4-hydroxybenzyl)-2-oxoethyl)-4-(2-oxo-1,4-dihydroquinazolin-3(2H)-yl)piperidine-1-carboxamide]
mortality (WT mice [1]; 100 mg/kg ip immediately before 40 mg/kg LPS ip (Figure 5E)): significant reduction of mortality
survival (WT mice [1]; intermittent subcutaneous treatment 100 mg/kg every 12 hours, starting 4h after ip LPS challenge (Figure 5I)): significantly prolonged survival
mortality (WT mice [1]; single 100 mg/kg ip 4h after 40 mg/kg LPS ip, into the inflamed peritoneal cavity (Figure 12)): increased mortality; also recorded: decreased survival
survival (WT mice [1]; single subcutaneous injection 100 mg/kg 4h after ip LPS challenge (Figure 5I)): trend towards improved survival
survival (WT mice [1]; subcutaneous 4h before LPS (40 mg/kg ip), prophylactic (Figure 5J)): favorable effect
II1b levels (WT mice [2]): significant reduction
II17a levels (WT mice [2]): significant reduction
LPS-dependent stimulatory effect of PCT on II1b expression [3]: inhibited
LPS-dependent stimulatory effect of PCT on II6 expression [3]: inhibited
mortality (WT mice [4]): significantly reduced
survival (Calca-deficient mice): did not further improve the survival
mortality rates (αCgrp-deficient mice): significantly improved mortality rates
